Bounds are passed on as bounds.

Data set [1] can be described thus: Plasma protein binding rate (PPB), mouse plasma. The format is in vitro ADME, CD-1 mice. Conditions: 2 μM, dialysis 4 hours 37° C. On the procedure: (§1) 796 μL of bank plasma from humans, SD rats and CD-1 mice (plasma purchased from BioreclamationIVT) were weighed, and the assay compound working solution or warfarin working solution was added so that the final concentration of the assay compound and warfarin in the plasma sample was 2 μM. The samples were mixed thoroughly. The final concentration of DMSO in the organic phase was 0.5%, 50 μL of plasma samples of the assay compound and warfarin were pipetted to a sample receiving plate, and the corresponding volume of the corresponding blank plasma or buffer was added immediately, so that the final volume in each sample well was 100 μL, wherein the volume ratio of plasma:dialysis buffer was 1:1. Stop solution was then added to these samples. These samples were used as T0 samples for determination of recovery and stability. The plasma samples of the assay compound and warfarin were added to the dosing end of each dialysis well, and blank dialysis buffer was added to the corresponding receiving end of the dialysis well. […] All samples were subjected to protein precipitation, and then analyzed by LC/MS/MS. Unbound rate (% Unbound), bound rate (% Bound), and recovery rate (% Recovery) of the compound were calculated using the following formulae: % Unbound=100*FC/TC, % Bond=100−% Unbound, and % Recovery=100*[…]/T0, […]

Data set [2] in a line: Pharmacokinetics in C57BL/6 mice. The format is in vivo. As to conditions: C57BL/6, plasma, mouse. Here is the method:
Eight healthy adult C57BL/6 mice (6-9 weeks old, purchased from Shanghai Lingchang Biotechnology Co., Ltd.) were selected, and randomly divided into two groups, 4 mice in each group (n=2, cross blood sampling). One group was given 0.5 mg/kg of the assay compound by intravenous injection, and the other group was given 1 mg/kg of the assay compound by gavage. Plasma samples were collected respectively from animals in the intravenous group and gavage group at 0.083, 0.25, 0.5, 1.0, 2.0, 4.0, 6.0, 8.0, 24 hours after administration. The blood concentration was determined by LC-MS/MS method. Relevant pharmacokinetic parameters were calculated by WinNonlin™ Version 6.3 (Pharsight, Mountain View, CA) pharmacokinetic software using non-compartmental model and linear logarithmic trapezoidal method. AUC0-last represents the area under the plasma concentration-time curve from zero time point to the last detectable concentration time point; Cmax represents the peak concentration; Tmax represents the time to reach the peak; T1/2 represents the half-life. CL represents the clearance rate; Tlast represents the last quantifiable time point; p.o. represents per os; i.v. represents intravenous injection; and F % represents oral bioavailability.

The target in a further data set is T1, RIP1 (Homo sapiens, UniProt Q13546).
T1 construct: purchased Eurofins Pharma Discovery Service
T1 sequence (Q13546 1-671): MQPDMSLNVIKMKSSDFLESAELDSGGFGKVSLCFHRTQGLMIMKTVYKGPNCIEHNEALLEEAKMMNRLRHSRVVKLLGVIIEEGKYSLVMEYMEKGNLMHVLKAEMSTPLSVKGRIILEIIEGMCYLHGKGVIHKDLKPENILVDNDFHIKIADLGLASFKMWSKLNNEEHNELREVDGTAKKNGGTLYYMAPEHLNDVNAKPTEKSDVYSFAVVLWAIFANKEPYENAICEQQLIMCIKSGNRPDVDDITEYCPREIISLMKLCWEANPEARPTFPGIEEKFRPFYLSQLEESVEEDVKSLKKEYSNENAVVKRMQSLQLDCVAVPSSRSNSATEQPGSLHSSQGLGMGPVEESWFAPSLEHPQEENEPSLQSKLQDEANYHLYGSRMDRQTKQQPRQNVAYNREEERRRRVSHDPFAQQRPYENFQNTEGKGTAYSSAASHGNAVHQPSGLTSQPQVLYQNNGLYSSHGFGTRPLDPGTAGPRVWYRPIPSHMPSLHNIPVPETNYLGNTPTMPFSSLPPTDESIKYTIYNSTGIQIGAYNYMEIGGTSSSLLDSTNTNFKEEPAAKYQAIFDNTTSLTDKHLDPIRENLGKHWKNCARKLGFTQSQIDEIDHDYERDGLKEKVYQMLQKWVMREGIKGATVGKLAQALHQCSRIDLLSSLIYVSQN
The data set can be described thus: Kinase selectivity assay (Eurofins, 33P radiolabeled kinase activity): RIP1. In kind it is biochemical. As to conditions: WX009 1 μM, ATP 10 μM, read-out: Inhibition rate. On the procedure:
(§2) The purpose of this assay was to detect the in vitro inhibitory activity of WX009 on a variety of kinases. The kinases used in this assay included 413 kinases, and the activity detection method was provided by Eurofins Pharma Discovery Service A method of detecting ^33P radiolabeled kinase activity was used for the assay. The concentration of WX009 was 1 μM, and the concentration of ATP was 10 μM.

The nature of data set [3]: Plasma protein binding rate (PPB), human plasma. Conditions: 2 μM, dialysis 4 hours 37° C. The format is in vitro ADME. Here is the method:
as §1

For data set [4], the system named is All other kinases (411 of 413 kinases). The data set can be described thus: Kinase selectivity assay (Eurofins, 33P radiolabeled kinase activity): all other kinases. Conditions: WX009 1 μM, ATP 10 μM. The format is biochemical. Here is the method: as §2

By AUC(0-t) is commonly meant exposure summed from dosing to a finite time, without extrapolation to infinity. Usually clearance stands for the rate of elimination divided by the concentration. Lower therefore signals inefficient removal. As a reminder, the half-life is how long it takes for the measured level to halve. Read a low half-life as rapid decline. Broadly, the bioavailability is dose-corrected exposure relative to a reference, in per cent. Low values mean poor availability, high ones good availability. Usually Cmax stands for the peak of the concentration-time curve. Broadly, the Tmax is the time from dosing to the highest level. For orientation: inhibition means the relative decrease from the control value, in per cent. `CN1C(=S)[C@@H](NC(=O)c2ncn(Cc3ccccc3)n2)COc2cccnc21` [WX009] had a PPB_Unbound in data set [1] of 7.0%. Besides, in data set [2] (iv, i.v. 0.5 mg/kg), the AUC(0-t) was 2.21 µM·h, the clearance was 9.4 mL/min/kg and the half-life was 84 min. For the same molecule, the Vd in data set [2] (iv, i.v. 0.5 mg/kg, read-out: Vdss) is 1.1 L/kg. Moreover, the bioavailability in data set [2] (oral, p.o. 1 mg/kg vs i.v. 0.5 mg/kg) came to 89.1%. In data set [2] (po, p.o. 1 mg/kg), the AUC(0-t) is 3.85 µM·h, the Cmax stood at 1500 nM and the time to peak (Tmax) amounted to 30 min. Moreover, on RIP1, the inhibition at 1 µM is greater than 80%. In addition, in data set [3], the PPB_Unbound came out at 5.7%. Also, the Inhibition rate in data set [4] was less than 50%.

For the origin of these results see patent US12351587B2, “Bicyclic compound as RIP-1 kinase inhibitor and application thereof” (MEDSHINE DISCOVERY INC., priority 2019, dated 2025).
